Experimental data taken from PubChem BioAssay AID256 (DTP/NCI, 2004).
Inconclusive results and toxic doses are left out. Rule for the calls: active = survival T/C of 150% or more; inactive = T/C below 125% in these data.

System: CD2F1 mice, L1210 leukemia ip, survival T/C
Assay: NCI In Vivo Anticancer Drug Screen. Data for tumor model L1210 Leukemia (intraperitoneal) in CD2F1 (CDF1) mice
Details: higher = longer survival
Procedure, shortened: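 In this screen, transplantable tumors were grown in mice given either the compound or its vehicle. Results were expressed as the treated measurement relative to the control measurement.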

[1] = endpoint: mean survival time, dose: 100.0 mg/kg/injection, schedule: Q04DX003 (ip), vehicle: saline with Tween-80
[2] = endpoint: mean survival time, dose: 200.0 mg/kg/injection, schedule: Q04DX003 (ip), vehicle: saline with Tween-80
[3] = endpoint: mean survival time, dose: 400.0 mg/kg/injection, schedule: Q04DX003 (ip), vehicle: saline with Tween-80
[4] = endpoint: mean survival time, dose: 100.0 mg/kg/injection, schedule: Q01DX009 (ip), vehicle: saline with Tween-80
[5] = endpoint: mean survival time, dose: 200.0 mg/kg/injection, schedule: Q01DX009 (ip), vehicle: saline with Tween-80
[6] = endpoint: mean survival time, dose: 100.0 mg/kg/injection, schedule: Q04DX003 (ip), vehicle: Klucel (hydroxypropylcellulose) (HPC)
[7] = endpoint: mean survival time, dose: 200.0 mg/kg/injection, schedule: Q04DX003 (ip), vehicle: Klucel (hydroxypropylcellulose) (HPC)
[8] = endpoint: mean survival time, dose: 400.0 mg/kg/injection, schedule: Q04DX003 (ip), vehicle: Klucel (hydroxypropylcellulose) (HPC)
[9] = endpoint: mean survival time, dose: 400.0 mg/kg/injection, schedule: Q01DX009 (ip), vehicle: saline with Tween-80
[10] = endpoint: mean survival time, dose: 200.0 mg/kg/injection, schedule: Q04DX003 (ip), vehicle: acetone
[11] = endpoint: mean survival time, dose: 400.0 mg/kg/injection, schedule: Q04DX003 (ip), vehicle: acetone
[12] = endpoint: mean survival time, dose: 100.0 mg/kg/injection, schedule: Q04DX002 (ip), vehicle: saline with Tween-80
[13] = endpoint: mean survival time, dose: 200.0 mg/kg/injection, schedule: Q04DX002 (ip), vehicle: saline with Tween-80
[14] = endpoint: mean survival time, dose: 400.0 mg/kg/injection, schedule: Q04DX002 (ip), vehicle: saline with Tween-80

Measured: T/C

CC1OC(O[C@@H]2C=C3CC[C@@H]4[C@H](CC[C@]5(C)[C@@H](c6ccc(=O)oc6)CC[C@]45O)[C@@]3(C)CC2)C(O)C(O)C1O (some centres undefined)
inactive: endpoint: mean survival time, dose: 1.25 mg/kg/injection, schedule: Q01DX001 (sc), vehicle: steriod suspending solution 101 % of control | endpoint: mean survival time, dose: 1.25 mg/kg/injection, schedule: Q01DX009 (sc), vehicle: steriod suspending solution 94 % of control | endpoint: mean survival time, dose: 2.5 mg/kg/injection, schedule: Q01DX001 (sc), vehicle: steriod suspending solution 101 % of control | endpoint: mean survival time, dose: 2.5 mg/kg/injection, schedule: Q01DX009 (sc), vehicle: steriod suspending solution 97 % of control | endpoint: mean survival time, dose: 2.5 mg/kg/injection, schedule: Q04DX003 (sc), vehicle: steriod suspending solution 93 % of control | endpoint: mean survival time, dose: 5.0 mg/kg/injection, schedule: Q01DX001 (sc), vehicle: steriod suspending solution 98 % of control | endpoint: mean survival time, dose: 5.0 mg/kg/injection, schedule: Q01DX009 (sc), vehicle: steriod suspending solution 95 % of control | endpoint: mean survival time, dose: 5.0 mg/kg/injection, schedule: Q04DX003 (sc), vehicle: steriod suspending solution 95 % of control | endpoint: mean survival time, dose: 10.0 mg/kg/injection, schedule: Q01DX001 (sc), vehicle: steriod suspending solution 101 % of control | endpoint: mean survival time, dose: 10.0 mg/kg/injection, schedule: Q01DX009 (sc), vehicle: steriod suspending solution 95 % of control | endpoint: mean survival time, dose: 10.0 mg/kg/injection, schedule: Q04DX003 (sc), vehicle: steriod suspending solution 112 % of control | endpoint: mean survival time, dose: 20.0 mg/kg/injection, schedule: Q01DX001 (sc), vehicle: steriod suspending solution 103 % of control | endpoint: mean survival time, dose: 20.0 mg/kg/injection, schedule: Q04DX003 (sc), vehicle: steriod suspending solution 101 % of control | endpoint: mean survival time, dose: 40.0 mg/kg/injection, schedule: Q04DX003 (sc), vehicle: steriod suspending solution 95 % of control

Cc1cc(CC(O)(C(F)(F)F)C(F)(F)F)cc(C(=O)O)n1
inactive: [1] 98 % of control | [2] 107 % of control | [3] 87 % of control

Cc1nc2ccc(Cl)cc2n1C
inactive: endpoint: mean survival time, dose: 50.0 mg/kg/injection, schedule: Q01DX009 (ip), vehicle: saline with Tween-80 102 % of control | [4] 102 % of control | [5] 106 % of control

COC(=O)C(c1ccccc1)C(SCc1ccccc1)c1ccccc1 (centres undefined)
inactive: [1] 103 % of control | [2] 95 % of control | [3] 98 % of control

CCOC(=O)c1[nH]c(C)c(C(=O)OCC)c1C
inactive: [6] 103 % of control | [7] 103 % of control | [8] 95 % of control

COC(=O)C1C2C=CC(C3CCC23)C1C(=O)OC (centres undefined)
inactive: [4] 100 % of control | [5] 93 % of control | [9] 91 % of control

COC(=O)C(CCC1CCCCC1)CC1CCCCC1 (centres undefined)
inactive: endpoint: mean survival time, dose: 100.0 mg/kg/injection, schedule: Q04DX003 (ip), vehicle: acetone 108 % of control | [10] 102 % of control | [11] 108 % of control

CC(=O)C1CCC2C3=CC=C4CC(OC(=O)CCC(C)C)CCC4(C)C3CCC12C (centres undefined)
inactive: [4] 105 % of control | [5] 97 % of control | [9] 101 % of control

Cc1[nH]nc(C(F)(F)F)c1N=NN1CCOCC1
inactive: endpoint: mean survival time, dose: 75.0 mg/kg/injection, schedule: Q01DX001 (ip), vehicle: other 100 % of control | endpoint: mean survival time, dose: 150.0 mg/kg/injection, schedule: Q01DX001 (ip), vehicle: other 109 % of control | endpoint: mean survival time, dose: 300.0 mg/kg/injection, schedule: Q01DX001 (ip), vehicle: other 101 % of control

Cc1ccc(N)c(N)c1
inactive: endpoint: median survival time, dose: 25.0 mg/kg/injection, schedule: Q01DX009 (ip), vehicle: saline with Tween-80 98 % of control | endpoint: median survival time, dose: 50.0 mg/kg/injection, schedule: Q01DX009 (ip), vehicle: saline with Tween-80 98 % of control | endpoint: median survival time, dose: 100.0 mg/kg/injection, schedule: Q01DX009 (ip), vehicle: saline with Tween-80 96 % of control

CN(Cc1cnc2nc(N)nc(N)c2n1)c1ccc(C(=O)NC(CCC(=O)O)C(=O)O)cc1.[W] (centres undefined)
active: endpoint: median survival time, dose: 11.0 mg/kg/injection, schedule: Q01DX009 (ip), vehicle: water 178 % of control | endpoint: median survival time, dose: 12.0 mg/kg/injection, schedule: Q01DX009 (ip), vehicle: water 202 % of control | endpoint: median survival time, dose: 12.0 mg/kg/injection, schedule: Q01DX009 (other), vehicle: water 202 % of control | endpoint: median survival time, dose: 14.0 mg/kg/injection, schedule: Q01DX009 (ip), vehicle: water 190 % of control | endpoint: median survival time, dose: 14.0 mg/kg/injection, schedule: Q## X009 (ip), vehicle: water 190 % of control | endpoint: median survival time, dose: 21.0 mg/kg/injection, schedule: Q01DX009 (ip), vehicle: water 178 % of control | endpoint: median survival time, dose: 22.0 mg/kg/injection, schedule: Q01DX009 (ip), vehicle: water 190 % of control | endpoint: median survival time, dose: 22.0 mg/kg/injection, schedule: Q01DX009 (other), vehicle: water 190 % of control | endpoint: median survival time, dose: 41.0 mg/kg/injection, schedule: Q01DX009 (ip), vehicle: water 166 % of control | endpoint: median survival time, dose: 42.0 mg/kg/injection, schedule: Q01DX009 (ip), vehicle: water 166 % of control | endpoint: median survival time, dose: 42.0 mg/kg/injection, schedule: Q01DX009 (other), vehicle: water 166 % of control

[N-]=[N+]=NC1CCOC(n2cnc3c(N)ncnc32)C1O (centres undefined)
inactive: endpoint: median survival time, dose: 25.0 mg/kg/injection, schedule: Q01DX005 (ip), vehicle: Klucel (hydroxypropylcellulose) (HPC) 102 % of control | endpoint: median survival time, dose: 25.0 mg/kg/injection, schedule: Q01DX005 (ip), vehicle: Klucel + Tween-80 101 % of control | endpoint: median survival time, dose: 50.0 mg/kg/injection, schedule: Q01DX005 (ip), vehicle: Klucel (hydroxypropylcellulose) (HPC) 100 % of control | endpoint: median survival time, dose: 50.0 mg/kg/injection, schedule: Q01DX005 (ip), vehicle: Klucel + Tween-80 101 % of control | endpoint: median survival time, dose: 100.0 mg/kg/injection, schedule: Q01DX005 (ip), vehicle: Klucel (hydroxypropylcellulose) (HPC) 108 % of control | endpoint: median survival time, dose: 100.0 mg/kg/injection, schedule: Q01DX005 (ip), vehicle: Klucel + Tween-80 102 % of control | endpoint: median survival time, dose: 200.0 mg/kg/injection, schedule: Q01DX005 (ip), vehicle: Klucel (hydroxypropylcellulose) (HPC) 102 % of control | endpoint: median survival time, dose: 200.0 mg/kg/injection, schedule: Q01DX005 (ip), vehicle: Klucel + Tween-80 102 % of control

COc1ccc(OC)c(C(=O)CCl)c1
inactive: [4] 100 % of control | [1] 96 % of control | [5] 102 % of control | [2] 101 % of control | [3] 92 % of control

CCOC(=O)C(CCC#N)(CCC#N)C(=O)O
inactive: endpoint: mean survival time, dose: 100.0 mg/kg/injection, schedule: Q04DX002 (ip), vehicle: saline 98 % of control | endpoint: mean survival time, dose: 200.0 mg/kg/injection, schedule: Q04DX002 (ip), vehicle: saline 111 % of control | endpoint: mean survival time, dose: 400.0 mg/kg/injection, schedule: Q04DX002 (ip), vehicle: saline 117 % of control

O/N=C/c1cccc[n+]1Cc1ccccc1
inactive: endpoint: mean survival time, dose: 1.56 mg/kg/injection, schedule: Q01DX009 (ip), vehicle: Klucel (hydroxypropylcellulose) (HPC) 107 % of control | endpoint: mean survival time, dose: 3.13 mg/kg/injection, schedule: Q01DX009 (ip), vehicle: Klucel (hydroxypropylcellulose) (HPC) 106 % of control | endpoint: mean survival time, dose: 6.25 mg/kg/injection, schedule: Q01DX009 (ip), vehicle: Klucel (hydroxypropylcellulose) (HPC) 102 % of control | endpoint: mean survival time, dose: 12.5 mg/kg/injection, schedule: Q01DX009 (ip), vehicle: Klucel (hydroxypropylcellulose) (HPC) 106 % of control | endpoint: mean survival time, dose: 25.0 mg/kg/injection, schedule: Q01DX009 (ip), vehicle: Klucel (hydroxypropylcellulose) (HPC) 95 % of control | endpoint: mean survival time, dose: 25.0 mg/kg/injection, schedule: Q01DX009 (ip), vehicle: water 100 % of control

CCOC(=O)C/C(C)=C/c1ccccc1 (tested in a mixture with another compound)
inactive: endpoint: mean survival time, dose: 100.0 mg/kg/injection, schedule: Q01DX001 (ip), vehicle: saline with Tween-80 95 % of control | [12] 98 % of control | endpoint: mean survival time, dose: 200.0 mg/kg/injection, schedule: Q01DX001 (ip), vehicle: saline with Tween-80 87 % of control | [13] 90 % of control | endpoint: mean survival time, dose: 400.0 mg/kg/injection, schedule: Q01DX001 (ip), vehicle: saline with Tween-80 94 % of control | [14] 110 % of control

COC(=O)CCC1CCCC(CCC(=O)OC)C1=O (centres undefined)
inactive: [6] 87 % of control | [7] 94 % of control | [8] 92 % of control

O=C(CCCCCCCCC(=O)OO)OO (tested in a mixture with another compound)
inactive: [4] 96 % of control

NC(=O)C(c1cccs1)c1cccs1
inactive: [12] 93 % of control | [13] 87 % of control | [14] 90 % of control

COC(=O)CCC(=O)c1cccc(C)c1
inactive: [10] 91 % of control | [11] 89 % of control
